{
  "source": "patent US20140121193A1",
  "about": "“METHODS FOR TREATING FIBROMYALGIA” (priority 2012, published 2014)",
  "assay_type_in_all_cases": "in vivo, human",
  "key": {"[1]": {"system": "patients with FMS", "test": "Interference from pain on energy, mood and concentration, 10 point visual analogue scale", "protocol": "(§1) Fibromyalgia patients were treated with methylphenidate and the effects on concentration, energy, and feelings of well-being were measured. […] Pain intensity was also recorded on a 10 point visual analogue scale, with the endpoint of 1 indicating no pain, and the endpoint of 10 indicating severe pain. The four measures were administered to 48 patients with FMS, before receiving methylphenidate and post methylphenidate treatment. The FMS patients were female and met the new ACR criteria for FMS. Methylphenidate dosage was clinically determined and ranged from 10 to 60 mg per day. The median methylphenidate usage at re-testing was 30 days.\n(§2) The mean age of the FMS sample was 48.3±12.3 years. […] The largest change occurred with concentration. However, a significant change in pain intensity with methylphenidate treatment was not observed."}, "[2]": {"system": "patients with FMS", "test": "Mental Clutter Scale (MCS), Cognition and Mental Clarity subscales, before and after methylphenidate", "details": "10 to 30 mg per day, median 30 days", "protocol": "Three studies involving a sample of over 800 subjects were carried out to determine the structure and stability of a new scale, the Mental Clutter Scale (MCS) (Leavitt & Katz, 2011, “Development of the Mental Clutter Scale,” Psychol. Rep. 109(2): 445-52). An initial pool of 13 items was formulated from self-statements of patients presenting with a history of memory complaints and a review of the literature. Seven items relating to problems with cognitive skills were rated on a 10-point Likert scale from 1=no problem, to 10=severe problem. Six items relating to the frequency of diminished mental clarity were rated on a 10-point Likert scale from 1=not at all, to 10=all the time.\n(§3) A word naming speed measure (Stroop Color and Word Test) and a measure of cognitive functioning (Mental Clutter Scale, MCS) were administered to 15 patients with FMS, before receiving methylphenidate and post-treatment with methylphenidate. The FMS patients were female, met American College of Rheumatology criteria for FMS, and had memory problems. Methylphenidate dosage was clinically determined and ranged from 10 to 30 mg per day. The median time of methylphenidate usage at re-testing was 30 days. Naming speed was determined by the number of words named in a 45 second time period.\n(§4) The mean age of the FMS sample was 46.3±11.6 years with 14.1±2.1 years of education. […] Pre-methylphenidate, the patients read 77.4 words in 45 seconds (581.4 msec/word). Post-methylphenidate, the patients read 93 words in 45 seconds (483.9 msec/word). This represents a 97.5 millisecond benefit from methylphenidate. The normative sample reads 108 words in 45 seconds or 417 msec/word."}, "[3]": {"system": "patients with FMS", "test": "Word naming speed (Stroop Color and Word Test) before and after methylphenidate", "details": "10 to 30 mg per day, median 30 days", "source_text": "Abnormalities in naming speed are an unappreciated feature of cognitive dysfunction in fibromyalgia (FMS). Approximately 50% of FMS patients with memory problems name words at a rate that is 203 milliseconds slower than normal. The connection between naming speed and memory loss in FMS is unclear. Stimulant medications like methylphenidate have been known to influence naming speed and could provide clues to the relationship between cognitive functioning and naming speed. The purpose of this experiment was to determine if faster naming speed is connected to positive change in cognitive functioning in patients with fibromyalgia.\nas §3, §4"}, "[4]": {"system": "patients with FMS", "test": "Pain intensity, 10 point visual analogue scale", "protocol": "as §1, §2"}},
  "note": "Structures can show the parent of a compound that is named as a salt.",
  "data": [
    {"compound": "COC(=O)C(c1ccccc1)C1CCCCN1", "note": "(racemic) [methylphenidate, d,l (racemic)-threo-methyl α-phenyl-2-piperidineacetate hydrochloride]", "values": [
      {"measurement": "Post-methylphenidate score, pain interference on Mood", "setting": "[1]; 48 female FMS patients, 10 to 60 mg per day, median 30 days, VAS 1-10, pre-methylphenidate 6.0 ± 2.6, lower scores = improved, p < 0.05", "value": "5.3 ± 2.5"},
      {"measurement": "Post-methylphenidate score, pain interference on Concentration", "setting": "[1]; 48 female FMS patients, 10 to 60 mg per day, median 30 days, VAS 1-10, pre-methylphenidate 6.5 ± 2.3, lower scores = improved", "value": "5.4 ± 2.4"},
      {"measurement": "Post-methylphenidate score, pain interference on Energy", "setting": "[1]; 48 female FMS patients, 10 to 60 mg per day, median 30 days, VAS 1-10, pre-methylphenidate 6.6 ± 2.4, lower scores = improved", "value": "5.9 ± 2.2"},
      {"measurement": "change in pain interference on concentration, repeated measures ANOVA", "setting": "[1]; pre vs post methylphenidate, p<0.001, largest change", "value": "significant reduction"},
      {"measurement": "change in pain interference on energy, repeated measures ANOVA", "setting": "[1]; pre vs post methylphenidate, p<0.01", "value": "significant reduction"},
      {"measurement": "change in pain interference on mood, repeated measures ANOVA", "setting": "[1]; pre vs post methylphenidate, p<0.05", "value": "significant reduction"},
      {"measurement": "Post-methylphenidate score, Mental Clarity subscale of the Mental Clutter Scale", "setting": "[2]; 15 FMS patients, pre-methylphenidate 48.1 ± 16.5, lower scores represent improved performance, p < 0.01", "value": "29.2 ± 13.6"},
      {"measurement": "Post-methylphenidate score, Cognition subscale of the Mental Clutter Scale", "setting": "[2]; 15 FMS patients, pre-methylphenidate 52.8 ± 15.6, lower scores represent improved performance, p < 0.01", "value": "35.1 ± 11.3"},
      {"measurement": "improvement with methylphenidate on Cognition (MCS)", "setting": "[2]; pre vs post", "value": 17, "unit": "point"},
      {"measurement": "improvement with methylphenidate on Mental Clarity (MCS)", "setting": "[2]; pre vs post", "value": 19, "unit": "point"},
      {"measurement": "words read in 45 seconds, post-methylphenidate", "setting": "[3]; pre-methylphenidate 77.4, normative sample 108", "value": 93, "unit": "words in 45 seconds"},
      {"measurement": "naming time per word, post-methylphenidate", "setting": "[3]; pre-methylphenidate 581.4, normative sample 417", "value": 483.9, "unit": "msec/word"},
      {"measurement": "benefit from methylphenidate in naming time per word", "setting": "[3]; pre minus post", "value": 97.5, "unit": "millisecond"},
      {"measurement": "Post-methylphenidate score, Pain intensity", "setting": "[4]; 48 female FMS patients, 10 to 60 mg per day, median 30 days, VAS 1-10, pre-methylphenidate 6.7 ± 1.9, lower scores = improved", "value": "6.4 ± 2.4"},
      {"measurement": "significant change in pain intensity with methylphenidate treatment", "setting": "[4]; pre vs post methylphenidate", "value": "not observed"}
    ]}
  ]
}
